Where a name gives a salt, the structure may show the parent alone.
Key:
[1] = biological target: T1, Rat FAAH-1 (Rattus norvegicus, UniProt P97612); experiment: Assay Method 2: rat FAAH-1 assay, 3H-anandamide hydrolysis in homogenate of SK-N-MC cells transfected with rat FAAH
T1 sequence (P97612 1-579): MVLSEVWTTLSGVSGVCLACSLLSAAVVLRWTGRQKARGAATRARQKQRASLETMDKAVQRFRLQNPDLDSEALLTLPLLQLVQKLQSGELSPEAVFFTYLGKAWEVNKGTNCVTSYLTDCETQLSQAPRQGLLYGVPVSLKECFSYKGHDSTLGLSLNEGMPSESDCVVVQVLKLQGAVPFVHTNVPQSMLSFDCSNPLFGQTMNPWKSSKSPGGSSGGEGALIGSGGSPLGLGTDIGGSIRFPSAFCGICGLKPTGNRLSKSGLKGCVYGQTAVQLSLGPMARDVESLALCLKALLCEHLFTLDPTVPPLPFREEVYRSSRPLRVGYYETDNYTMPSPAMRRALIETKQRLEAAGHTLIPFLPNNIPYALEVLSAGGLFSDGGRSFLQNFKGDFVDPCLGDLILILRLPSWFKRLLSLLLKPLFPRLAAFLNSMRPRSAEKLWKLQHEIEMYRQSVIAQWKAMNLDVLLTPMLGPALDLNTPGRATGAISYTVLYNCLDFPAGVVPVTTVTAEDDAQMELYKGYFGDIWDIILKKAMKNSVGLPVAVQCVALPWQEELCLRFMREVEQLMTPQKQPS

[2] = biological target: T2, FAAH (Homo sapiens, UniProt O00519); experiment: Assay Method 1: FAAH assay, 3H-anandamide hydrolysis in homogenate of T84 cells or SK-N-MC cells transfected with human FAAH
T2 sequence (O00519 1-579): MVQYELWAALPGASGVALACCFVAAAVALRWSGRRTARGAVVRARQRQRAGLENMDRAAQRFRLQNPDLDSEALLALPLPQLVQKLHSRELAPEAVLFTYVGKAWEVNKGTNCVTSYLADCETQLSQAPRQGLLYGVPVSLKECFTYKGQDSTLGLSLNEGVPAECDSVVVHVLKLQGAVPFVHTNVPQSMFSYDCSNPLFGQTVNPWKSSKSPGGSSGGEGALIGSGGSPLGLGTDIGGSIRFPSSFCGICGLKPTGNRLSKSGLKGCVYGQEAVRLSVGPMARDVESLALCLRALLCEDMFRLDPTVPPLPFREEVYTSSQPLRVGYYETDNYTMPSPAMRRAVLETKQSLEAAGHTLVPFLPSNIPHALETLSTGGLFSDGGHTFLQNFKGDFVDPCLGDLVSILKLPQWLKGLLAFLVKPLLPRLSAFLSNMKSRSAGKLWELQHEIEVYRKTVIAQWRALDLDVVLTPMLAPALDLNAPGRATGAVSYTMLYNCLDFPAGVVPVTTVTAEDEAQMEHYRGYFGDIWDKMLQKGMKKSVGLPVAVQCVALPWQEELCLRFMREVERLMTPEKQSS

Structure (SMILES) | IC50 [1] | IC50 [2]
O[C@@H](CNc1cc(-c2ccc(C(F)(F)F)c(Cl)c2)nc(C(F)(F)F)n1)c1ccccc1 [Example 93, (1R)-2-({6-[3-Chloro-4-(trifluoromethyl)phenyl]-2-(trifluoromethyl)pyrimidin-4-yl}amino)-1-phenylethanol trifluoroacetic acid salt] | 152 nM | 183 nM
O[C@@H](CNc1cc(-c2cc(F)c(F)c(F)c2)ncn1)c1ccccc1 [Example 54, (1R)-1-Phenyl-2-{[6-(3,4,5-trifluorophenyl)pyrimidin-4-yl]amino}ethanol trifluoroacetic acid salt] | 443 nM | 277 nM
CNc1nc(NC[C@H](O)c2ccccc2)cc(-c2ccc(C(F)(F)F)c(Cl)c2)n1 [Example 141, (1R)-2-({6-[3-Chloro-4-(trifluoromethyl)phenyl]-2-(methylamino)pyrimidin-4-yl}amino)-1-phenylethanol trifluoroacetic acid salt] | 5 nM | 12 nM
O[C@@H](CNc1cc(-c2cc3ccc(C(F)(F)F)cc3s2)ncn1)c1ccccc1 [Example 186, (1R)-1-Phenyl-2-({6-[6-(trifluoromethyl)-1-benzothiophen-2-yl]pyrimidin-4-yl}amino)ethanol trifluoroacetic acid salt] | > 10000 nM | 7070 nM
OC(CNc1cc(-c2ccc(OC(F)(F)F)cc2)ncn1)c1ccccc1Cl (centres unmarked) [Example 115, 1-(2-Chlorophenyl)-2-[(6-{4-[(trifluoromethyl)oxy]phenyl}pyrimidin-4-yl)amino]ethanol] | 205 nM | 140 nM
NS(=O)(=O)c1ccc(-c2cc(NC[C@H](O)c3ccccc3)ncn2)cc1 [Example 81, 4-(6-{[(2R)-2-Hydroxy-2-phenylethyl]amino}pyrimidin-4-yl)benzenesulfonamide] | 492 nM | 110 nM
COc1ccc(-c2cc(NC[C@H](O)c3ccccc3)ncn2)cn1 [Example 63, (1R)-2-{[6-(6-Methoxypyridin-3-yl)pyrimidin-4-yl]amino}-1-phenylethanol] | 2000 nM | 450 nM
OC(CNc1cc(-c2ccc(OC(F)(F)F)cc2)ncn1)c1ccc2c(c1)OC(F)(F)O2 (centres unmarked) [Example 122, 1-(2,2-Difluoro-1,3-benzodioxol-5-yl)-2-[(6-{4-[(trifluoromethyl)oxy]phenyl}pyrimidin-4-yl)amino]ethanol] | 19 nM | 13 nM
Cc1cc(-c2cc(NC[C@H](O)c3ccccc3)ncn2)ccc1Cl [Example 26, (1R)-2-{[6-(4-Chloro-3-methylphenyl)pyrimidin-4-yl]amino}-1-phenylethanol trifluoroacetic acid salt] | 163 nM | 52 nM
O[C@@H](CNc1cc(-c2ccc(F)c(F)c2)ncn1)c1ccccc1 [Example 59, (1R)-2-{[6-(3,4-Difluorophenyl)pyrimidin-4-yl]amino}-1-phenylethanol trifluoroacetic acid salt] | 1000 nM | 307 nM
O[C@@H](CNc1cc(-c2ccc3c(C(F)(F)F)csc3c2)ncn1)c1ccccc1 [Example 221] | 480 nM | 19 nM
Cc1cc(C)cc(-c2cc(NC[C@H](O)c3ccccc3)ncn2)c1 [Example 40, (1R)-2-{[6-(3,5-Dimethylphenyl)pyrimidin-4-yl]amino}-1-phenylethanol trifluoroacetic acid salt] | > 10000 nM | 766 nM
N#Cc1ccc(-c2cc(NCC(O)c3ccccc3)ncn2)cc1 (centres unmarked) [Example 226, 4-{6-[(2-Hydroxy-2-phenylethyl)amino]pyrimidin-4-yl}benzonitrile] | 663 nM | 341 nM
NCCNc1nc(NC[C@H](O)c2ccccc2)cc(-c2ccc(C(F)(F)F)c(Cl)c2)n1 [Example 157, (1R)-2-({2-[(2-Aminoethyl)amino]-6-[3-chloro-4-(trifluoromethyl)phenyl]pyrimidin-4-yl}amino)-1-phenylethanol trifluoroacetic acid salt] | 4000 nM | 2000 nM
O[C@@H](CNc1cc(-c2csc3ccccc23)ncn1)c1ccccc1 [Example 87, (1R)-2-{[6-(1-Benzothiophen-3-yl)pyrimidin-4-yl]amino}-1-phenylethanol trifluoroacetic acid salt] | 1400 nM | 42 nM
C[C@H]([C@H](O)c1ccccc1)N(C)c1cc(-c2ccc(OC(F)(F)F)cc2)ncn1 [Example 120, (1R,2R)-2-[Methyl(6-{4-[(trifluoromethyl)oxy]phenyl}pyrimidin-4-yl)amino]-1-phenylpropan-1-ol] | > 10000 nM | > 10000 nM
CC(C)Oc1ccc(-c2cc(NC[C@H](O)c3ccccc3)ncn2)cc1F [Example 36, (1R)-2-({6-[3-Fluoro-4-(1-methylethoxy)phenyl]pyrimidin-4-yl}amino)-1-phenylethanol trifluoroacetic acid salt] | 20 nM | 8 nM
O[C@@H](CNc1cc(-c2ccc(C(F)(F)F)c(Cl)c2)ncn1)c1ccc(Cl)c(F)c1 [Example 146, (1R)-1-(4-Chloro-3-fluoro-phenyl)-2-[6-(3-chloro-4-trifluoromethyl-Phenyl)-pyrimidin-4-ylamino]-ethanol] | 4 nM | 26 nM
O[C@@H](CNc1cc(-c2ccc(C(F)(F)F)c(Cl)c2)ncn1)c1ccc(F)cc1 [Example 62, (1R)-2-({6-[3-Chloro-4-(trifluoromethyl)phenyl]ivrimidin-4-yl}amino)-1-(4-fluorophenyl)ethanol] | 3 nM | 2 nM

The remaining lines, values ahead:

IC50 [1] | IC50 [2] | Structure (SMILES)
6 nM | 47 nM | OC(CNc1cc(-c2ccc(C(F)(F)F)c(Cl)c2)ncn1)c1ccc2ccccc2c1 (centres unmarked) [Example 192, 2-({6-[3-Chloro-4-(trifluoromethyl)phenyl]pyrimidin-4-yl}amino)-1-naphthalen-2-ylethanol]
4 nM | 10 nM | O[C@@H](CNc1cc(-c2ccc3c(C(F)(F)F)noc3c2)ncn1)c1ccccc1 [Example 182, (1R)-1-Phenyl-2-({6-[3-(trifluoromethyl)-1,2-benzisoxazol-6-yl]pyrimidin-4-yl}amino)ethanol]
40 nM | 2 nM | Cc1ccc2sc(-c3cc(NC[C@H](O)c4ccccc4)ncn3)cc2c1 [Example 56, (1R)-2-{[6-(5-Methyl-1-benzothiophen-2-yl)pyrimidin-4-yl]amino}-1-phenylethanol]
28 nM | 6 nM | Nc1nc(NC[C@H](O)c2ccccc2)cc(-c2ccc(C(F)(F)F)c(Cl)c2)n1 [Example 61, (1R)-2-({2-Amino-6-[3-chloro-4-(trifluoromethyl)phenyl]pyrimidin-4-yl}amino)-1-phenylethanol trifluoroacetic acid salt]
120 nM | 500 nM | OC(CNc1cc(-c2ccc(C(F)(F)F)c(Cl)c2)ncn1)c1ccc2c(c1)OCCO2 (centres unmarked) [Example 199, 2-({6-[3-Chloro-4-(trifluoromethyl)phenyl]pyrimidin-4-yl}amino)-1-(2,3-dihydro-1,4-benzodioxin-6-yl)ethanol]
42 nM | 66 nM | OC(CNc1cc(-c2ccc(C(F)(F)F)c(Cl)c2)ncn1)c1ccsc1 (centres unmarked) [Example 168, 2-({6-[3-Chloro-4-(trifluoromethyl)phenyl]pyrimidin-4-yl}amino)-1-thiophen-3-ylethanol]
4000 nM | 700 nM | CC(=O)c1ccc(-c2cc(NCC(O)c3ccccc3)ncn2)s1 (centres unmarked) [Example 236, 1-{5-[6-(2-Hydroxy-2-phenyl-ethylamino)-pyrimidin-4-yl]-thiophen-2-yl}-ethanone]
43 nM | 46 nM | OC(CNc1cc(-c2ccc(OC(F)(F)F)cc2)ncn1)c1ccc(Cl)c(Cl)c1 (centres unmarked) [Example 114, 1-(3,4-Dichlorophenyl)-2-[(6-{4-[(trifluoromethyl)oxy]phenyl}-pyrimidin-4-yl)amino]ethanol]
150 nM | 170 nM | OC(CNc1cc(-c2ccc(C(F)(F)F)c(Cl)c2)ncn1)c1ccccc1OC(F)F (centres unmarked) [Example 189, 2-({6-[3-Chloro-4-(trifluoromethyl)phenyl]pyrimidin-4-yl}amino)-1-[2-(difluoromethoxy)phenyl]ethanol]

From patent publication US8598202B2, “Aryl-hydroxyethylamino-pyrimidines and triazines as modulators of fatty acid amide hydrolase” (Janssen Pharmaceutica NV, priority 2008, dated 2013)
